# Patent publication US9908848B2, “Amide derivatives of lactam based N-acylethanolamine acid amidase (NAAA) inhibitors” (The Regents of the University of California, priority 2013, dated 2018)
# pIC50: −log10 of the molar value.
# What was measured:
# [1] = molecular target: T1, Rat AC (r-AC), Acid Ceramidase (Rattus norvegicus, UniProt Q6P7S1); experiment: Rat AC (r-AC) assay, UPLC/MS; format: biochemical; conditions: read-out: r-AC UPLC/MS assay % inhib.
# T1 construct: V5 (C); His (C); made in house; host or cells: HEK293 cells transfected with pEF6-rAC-V5/His, selected with G418; soluble fraction after freeze/thaw
# T1 sequence (Q6P7S1 21-394): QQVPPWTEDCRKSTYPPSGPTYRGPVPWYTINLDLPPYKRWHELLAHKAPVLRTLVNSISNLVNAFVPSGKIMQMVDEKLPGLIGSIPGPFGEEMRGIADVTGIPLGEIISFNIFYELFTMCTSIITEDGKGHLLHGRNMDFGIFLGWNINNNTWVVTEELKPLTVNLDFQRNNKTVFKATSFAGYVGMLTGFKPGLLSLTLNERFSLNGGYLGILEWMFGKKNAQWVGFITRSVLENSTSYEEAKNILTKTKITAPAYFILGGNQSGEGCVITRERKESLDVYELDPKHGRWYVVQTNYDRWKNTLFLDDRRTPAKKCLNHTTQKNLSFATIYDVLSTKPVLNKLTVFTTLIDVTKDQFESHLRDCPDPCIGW
# Experimental: The selectivity of selected compounds versus Acid Ceramidase (AC) was determined.
# Rat AC (r-AC) was cloned from a brain cDNA library using primers based on the sequence obtained from the National Center for Biotechnology Information (NCBI) database: 5′rAC (5′-GACCATGCTGGGCCGTAGT-3′) (SEQ ID NO:1) and 3′rAC (5′-CCAGCCTATACAAGGGTCT-3′) (SEQ ID NO:2). The PCR (High Fidelity PCR Master, Roche) product was subcloned into a pEF6-V5/His vector (Invitrogen) to construct a mammalian expression vector encoding V5/His-tagged rat AC. HEK293 cells were transfected with pEF6-rAC-V5/His using Super-Fect reagent (Qiagen) and screened with G418 (0.3 mg/mL). Cells were suspended in 20 mM Tris HCl (pH 7.5) containing 0.32M sucrose, sonicated and centrifuged at 800×g for 15 min at 4° C. The supernatants were centrifuged again at 12,000×g for 30 min at 4° C. The pellets were suspended in phosphate-buffered saline (PBS) and subjected to 2 freeze-thaw cycles at −80° C. The suspensions were centrifuged at 105,000×g for 1 hour at 4° C. The supernatants containing recombinant AC were kept at −80° C. until use. Protein concentration was measured using the bicinchoninic acid (BCA) assay (Pierce). Recombinant rat AC (50 μg) was preincubated with inhibitors (final DMSO concentration 1%) in assay buffer (100 mM sodium phosphate, 0.1% Nonidet P-40, 150 mM NaCl, 3 mM DTT, 100 mM sodium citrate, pH 4.5) for 30 min at 37° C. Reactions were started by the addition of 100 μM N-lauroyl ceramide (Nu-Chek Prep, Elysian, Minn.) and carried on for 30 min at 37° C. Reactions were stopped by addition of a mixture of chloroform/methanol (2:1, vol/vol) containing 1 nmol of heptadecanoic acid (HDA; NuChek Prep). The organic phases were collected, dried under N2, and analyzed by LC-MS in the negative-ion mode using […] (HDA) as internal standard (m/z=199 for lauric acid, m/z=269 for HDA). HDA was eluted on an XDB Eclipse C18 column isocratically at 2.2 mL/min for 1 min with a solvent mixture of 95% methanol and 5% water, both containing 0.25% acetic acid and 5 mM ammonium acetate. The column temperature was 50° C. Electrospray ionization (ESI) was in the negative mode, capillary voltage as 4 kV, and fragmentor voltage was 100 V. N2 was used as drying gas at a flow rate of 13 L/min and a temperature of 350° C. Nebulizer pressure was set at 60 psi. We monitored […] in the selected-ion monitoring (SIM) mode using HDA as internal standard. Calibration curves were generated using commercial lauric acid (Nu-Chek Prep; m/z=199).
# human NAAA = molecular target: T2, human NAAA (Homo sapiens, UniProt Q02083); experiment: Fluorogenic h-NAAA assay; format: biochemical; conditions: recombinant HEK-hNAAA preparation
# T2 construct: made in house; host or cells: HEK293 cells, stably transfected; soluble fraction after freeze/thaw
# T2 sequence (Q02083 29-359): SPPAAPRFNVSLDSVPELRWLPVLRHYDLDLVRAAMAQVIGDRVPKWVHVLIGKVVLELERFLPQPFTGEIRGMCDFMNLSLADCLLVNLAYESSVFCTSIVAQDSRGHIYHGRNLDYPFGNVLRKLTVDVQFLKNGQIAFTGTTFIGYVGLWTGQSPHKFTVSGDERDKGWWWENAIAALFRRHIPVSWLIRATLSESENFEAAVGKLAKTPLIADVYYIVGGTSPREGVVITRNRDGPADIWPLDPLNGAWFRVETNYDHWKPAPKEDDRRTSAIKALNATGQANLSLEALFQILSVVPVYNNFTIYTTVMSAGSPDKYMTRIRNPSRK
# Experimental: Hek293 cells stably transfected with the human NAAA coding sequence cloned from a human spleen cDNA library were used as enzyme source. Recombinant HEK-hNAAA pellets were resuspended in homogenizing buffer, and sonicated. Samples were centrifuged at 800×g for 15 min at 4° C. and the supernatants were ultracentrifuged at 12,000×g for 30 min at 4° C. The pellets were resuspended in PBS pH 7.4 on ice and subjected to a freeze/thaw cycle at −80° C. (two freeze/thaw cycles at −80° C. for Examples 34-37). The suspension was finally centrifuged at 105,000×g for 1 h at 4° C. Protein concentration was measured and samples stored at −80° C. until use.
# The assay was run in Optiplate 96-wells black plates, in a total reaction volume of 200 μL. NAAA protein preparation (4.0 μg for Examples except 34-37, which were 20.0 μg) was pre-incubated for 10 min with various concentrations of test compounds or vehicle control (5% DMSO) in 100 mM citrate/phosphate buffer (pH 4.5) containing 3.0 mM DTT, 0.1% Triton X-100, 0.05% BSA, 150 mM NaCl. N-(4-methyl-2-oxo-chromen-7-yl)-hexadecanamide was used as a substrate (5.0 μM) and the reaction carried over for 30 min at 37° C. The samples were then read in a Perkin Elmer Envision plate reader using an excitation wavelength of 360 nm and emission 460 nm. IC50 values were calculated by non-linear regression analysis of log [concentration]/inhibition curves using GraphPad Prism 5 (GraphPad Software Inc., CA—USA) applying a standard slope curve fitting.
inhibition at 1 µM [1] [%],pIC50 (human NAAA),Structure (SMILES)
25,6.97,"CCCCCCCCC(=O)N[C@H]1CNC1=O [Example 3, N-[(3S)-2-Oxoazetidin-3-yl]-nonanamide]"
25,6.48,"O=C(CCCCCCc1ccccc1)N[C@H]1CNC1=O [Example 7, 7-Phenyl-N-[(3S)-2-Oxoazetidin-3-yl]-heptanamide]"
